Results on one molecule are retold here after patent US20180185374A1, “INHIBITORS OF MTOR KINASE AS ANTI-VIRAL AGENTS” (THE TRUSTEES OF PRINCETON UNIVERSITY, priority 2009, published 2018).

One assay concerns HSV-1. Briefly: HSV-1 replication in MEFs, TCID50. The note with it: 72 hpi. In kind it is cell-based, herpes simplex virus type 1.
Another assay relates to γHV68. Put plainly: γHV68 replication in MEFs, TCID50. In kind it is cell-based, murine gammaherpesvirus 68. The note with it: 0.05 PFU/cell, 6 days post infection, rapamycin 20 nM, Torin1 250 nM.
The subject of another assay is rpS6. Put plainly: rpS6 phosphorylation in HCMV-infected fibroblasts, Western blot. In kind it is cell-based, human. The note with it: rapamycin 20 nM, Torin1 250 nM; 3 PFU/cell. As to the method:
(§1) FIG. 4. Rapamycin-resistant mTOR activity is required for 4EBP1 phosphorylation and eIF4F complex integrity during HCMV infection. Serum-starved confluent human fibroblasts were infected with HCMV at a multiplicity of 3 PFU/cell. […] (A) At 48 hpi the phosphorylation status of mTORC1 targets was assessed by Western blot assay by using antibodies to phosphorylated targets (4EBP1-PT^37/46 and rpS6-PS^235/6) and total proteins. Tubulin was assayed as a loading control. (B) Same as above (A) except that cells were harvested at the indicated times. (C and D) After mock infection (M) or infection with HCMV (WT) at a multiplicity of 3 PFU/cell, cultures were harvested at the indicated times. Equivalent amounts of protein from each sample were incubated with m^7GTP-Sepharose, and the isolated protein complexes were analyzed by Western blotting using the indicated antibodies to the eIF4F complex and 4EBP1. In all cases the results are representative of at least two independent experiments. lys, lysate.
(§2) HCMV infection induces mTORC1 activity, but the phosphorylation of mTORC1 targets is differentially sensitive to the mTORC1 inhibitor rapamycin. […] Total 4EBP1, rpS6, and tubulin levels were monitored to control for protein recovery. […]
(A western blot detects proteins with antibodies after separation by electrophoresis.)

Assay [1] deals with 4EBP1. Put plainly: 4EBP1 phosphorylation in HCMV-infected fibroblasts, Western blot. In kind it is cell-based, human. The note with it: rapamycin 20 nM, Torin1 250 nM; 3 PFU/cell. The protocol: as §1, §2
Assay [2] has as its system HCMV. Put plainly: Torin1 drug release experiment, HCMV yield 16 days post infection by TCID50. In kind it is cell-based, human cytomegalovirus. The note with it: ≤250 nM drug. As to the method:
FIG. 1. […] Serum-starved confluent human fibroblasts were infected with HCMV at a multiplicity of 0.05 PFU/cell. Cell-free virus was quantified by a TCID50 assay, and error bars represent the standard errors of the means from two independent experiments, each performed in duplicate. […] Supernatants were harvested every other day and replaced with fresh medium containing the appropriate treatment, and virus in the supernatant was assayed on the indicated days. […] Infected fibroblasts were treated with various doses of Torin1. Medium with drug was replaced every other day, and virus in the supernatant was assayed on day 8 post infection (black bars). On day 8, a second set of cultures was washed twice, serum-free medium containing no drug was added to each well, and virus was assayed after an additional 8 days (16 days post infection) (white bars).
To further confirm that the viral growth defect was not the result of cytotoxicity, we performed a drug release experiment. […] Eight days later, virus in the supernatant was quantified by the TCID50 method (16 days post infection) (FIG. 1B).

Another assay deals with eIF4F complex. Briefly: m7G-Sepharose cap-binding assay, MCMV-infected MEFs. In kind it is cell-based, mouse. The note with it: Torin1 250 nM, 48 hpi. As to the method:
FIG. 7. […] At 6 days post infection the amount of MCMV in cell-free supernatants was determined by the TCID50 method. The error bars represent the standard errors of the means from three independent experiments, each performed in duplicate. […] At 48 hpi equal amounts of protein from cell lysates were incubated with m^7G-Sepharose. The presence of eIF4F complex components bound by the cap analog was determined by Western blotting. The results are representative of two independent experiments.
We first investigated the requirement for mTORC2 for the replication of MCMV. […] Finally, the cells were confirmed to lack an intact Rictor locus when assayed by PCR (FIG. 6C). We also employed Akt1/Akt2-null MEFs to evaluate a possible role for the Akt kinase, one of the targets of mTORC2. […] Again, the cells were confirmed to lack Akt by Western blot assay (FIG. 6F). […] 4EBP1 functions to inhibit eIF4F complex assembly unless inactivated by mTORC1-mediated phosphorylation. […] Finally, that 4EBP1 was not detected in lysates of these cells by Western blot assay confirmed the phenotype of the MEFs.

Assay [3] concerns 4EBP1. Put plainly: 4EBP1 phosphorylation in HSV-1-infected MEFs, Western blot. In kind it is cell-based, mouse. The note with it: 3 PFU/cell, 8 hpi.
Assay [4] has as its system HCMV. Put plainly: GFP marker expression from viral genome, percentage of infected cells. In kind it is cell-based, human cytomegalovirus. The note with it: 24 hpi; 250 nM. The protocol: FIG. 2. […] Serum-starved confluent fibroblasts were infected with HCMV at a multiplicity of 3 PFU/cell. […] Control cultures received the vehicle in which Torin1 was dissolved (NT). At 2 hpi cells were harvested, and cell-associated viral DNA was quantified by real-time PCR analysis. Error bars represent the standard errors of the means from two independent experiments performed in duplicate. […] The level of IE1 was determined at 6 hpi by a Western blot assay using an IE1-specific monoclonal antibody. The image is representative of two independent experiments. […] The expression of a GFP marker gene present in the viral genome was monitored at 24 h after infection in the presence or absence of drug.

As to `CCC(=O)N1CCN(c2ccc(-n3c(=O)ccc4cnc5ccc(-c6cnc7ccccc7c6)cc5c43)cc2C(F)(F)F)CC1` [Torin1], the “production of HSV-1” value in the assay with HSV-1 (4EBP1-null MEFs) is “failed to inhibit”. Further, in the assay on HSV-1 (MEFs, 0.05 PFU/cell, rapamycin 20 nM, Torin1 250 nM), the HSV-1 replication result is given as “inhibited both viruses”. For the same molecule, in the assay on γHV68, the γHV68 replication entry is given as “inhibited both viruses”. Further, in the assay on rpS6, the “induction of rpS6 phosphorylation during HCMV infection” value is listed as “markedly inhibited”. The “phosphorylation of 4EBP1 during HCMV infection” value in the assay with 4EBP1 [1] is “substantially blocked”. Besides, the “increase in virus yield after reversal of 8-day treatment” value in the assay with HCMV [2] is no less than 100 fold. The “formation of the eIF4F complex” value was “no such effect was observed” with eIF4F complex (4EBP1-null MEFs) and “inhibited the formation of the eIF4F complex” in the assay with eIF4F complex (control MEFs). In addition, the “phosphorylation of 4EBP1 during HSV-1 infection” value with 4EBP1 [3] is “inhibited”. Moreover, in the assay on HCMV [4], the “percentage of cells expressing GFP marker” value is on record as “did not alter the percentage of cells”.
